Test results as given in patent US20170281700A1, “PHAGE THERAPY FOR TARGETING ENTEROCOCCI” (priority 2014, published 2017).

Test system: E. faecalis V583 VRE
Type: cell-based, Enterococcus faecalis
Description: The insert depicts the clot model.
E. faecalis V583 (VRE) is an example of a vancomycin resistant E. faecalis that was announced by the Centers for Disease Control (CDC) as one of the major bacterial threats today.

Which “colony growth on agar plate from seeded culture aliquots” value (24 hours incubation in 37 °C) does the source give for `CN[C@H](CC(C)C)C(=O)N[C@H]1C(=O)N[C@@H](CC(N)=O)C(=O)N[C@H]2C(=O)N[C@H]3C(=O)N[C@H](C(=O)N[C@H](C(=O)O)c4cc(O)cc(O)c4-c4cc3ccc4O)[C@H](O)c3ccc(c(Cl)c3)Oc3cc2cc(c3O[C@@H]2O[C@H](CO)[C@@H](O)[C@H](O)[C@H]2O[C@H]2C[C@](C)(N)[C@H](O)[C@H](C)O2)Oc2ccc(cc2Cl)[C@H]1O` [vancomycin] here?
Its value is “growth was observed”.

And the “effect on growth and viability” value (EFLK1 2.5×10^7 phages/ml, vancomycin 15 μg/ml)?
Its value is “somewhat affects its growth and viability”.
